Assay results as given in patent US9574176B2 (priority 2012, dated 2017).

Legend:
[1] = system: WT mouse-derived neural stem cells; format: cell-based
[2] = system: human neural progenitor cells (NHNP); format: cell-based

ω-conotoxin GVIA
differentiation after passaging with inhibitor [1]: differentiation into Tuj-1 (class III β-tubulin)-positive nerve cells and GFAP (grail fibrillary acidic protein)-positive astrocytes could be confirmed | differentiation after passaging with inhibitor [2]: many cells differentiate into Tuj-1 (class III β-tubulin)-positive nerve cells and some cells differentiate into GFAP (grail fibrillary acidic protein)-positive astrocytes
